Where two headings read alike, the source gives them in different places.
Experiments:
MV4-11 cells = assay: Cell proliferation assay (ATPlite); type: cell-based; settings: MV-411 cells, five days, read-out: In vitro whole cell potency in MV-411 cells, (IC50)
Procedure, shortened: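 Read-out is ATP-based luminescence (ATPlite) after 5 days of culture at 37° C under 5% CO2. Compounds were given as 10-point dilutions starting at 10 μM to MV4-11 cells, seeded at 1,000 cells/well in Alpha-MEM plus 10% FBS.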

WDR5 = WDR5 (Homo sapiens (Human), UniProt P61964); assay: Surface Plasmon Resonance (SPR) assay, KD and residence time; type: binding; settings: read-out: WDR5 binding affinity (KD)
[1] = surface plasmon resonance (SPR) assay
[2] = surface plasmon resonance (SPR)

Compound	IC50 (MV4-11 cells; Homo sapiens, MV4-11, 120 h) [µM]	Kd (WDR5; [1]) [µM]	Kd (WDR5; [2]) [µM]	IC50 (MV4-11 cells) [µM]
CC(C)COc1ncc(-c2cc(NC(=O)c3c[nH]c(=O)cc3C(F)(F)F)c(N3C[C@@H](C)N(C)[C@@H](C)C3)cc2F)cc1Cl [Example 91, N-[5-[5-chloro-6-(2-methylpropoxy)pyridin-3-yl]-4-fluoro-2-[(3R,5S)-3,4,5-trimethylpiperazin-1-yl]phenyl]-6-oxo-4-(trifluoromethyl)-1H-pyridine-3-carboxamide]	0.257	0.00447		
CCN(C)C1CCN(c2cc(F)c(-c3cnc(N4C[C@@H](C)O[C@@H](C)C4)nc3)cc2NC(=O)c2c[nH]c(=O)cc2C(F)(F)F)C1 (stereo in doubt) [Example 418, N-[4-fluoro-5-[2-[(2R,6S)-2,6-dimethylmorpholin-4-yl]pyrimidin-5-yl]-2-[(3S)-3-[ethyl(methyl)amino]pyrrolidin-1-yl]phenyl]-6-oxo-4-(trifluoromethyl)-1H-pyridine-3-carboxamide]	0.07		0.00105	
C[C@@H]1CN(c2cc(F)c(-c3cnc(N4CCOCC4)nc3)cc2NC(=O)c2ccc(F)cc2C(F)(F)F)C[C@H](C)N1C [Example 248, 4-fluoro-N-[4-fluoro-5-(2-morpholin-4-ylpyrimidin-5-yl)-2-[(3R,5S)-3,4,5-trimethylpiperazin-1-yl]phenyl]-2-(trifluoromethyl)benzamide]	0.137	0.00133		
C[C@@H]1CN(c2cc(F)c(-c3ccc(N4CCOCC4)c(F)c3)cc2NC(=O)c2cn(C)c(=O)cc2C(F)(F)F)C[C@H](C)N1C [Example 247, N-[4-fluoro-5-(3-fluoro-4-morpholin-4-ylphenyl)-2-[(3R,5S)-3,4,5-trimethylpiperazin-1-yl]phenyl]-1-methyl-6-oxo-4-(trifluoromethyl)pyridine-3-carboxamide]	0.854	0.00516		
C[C@@H]1CN(c2cc(F)c(-c3cnc(N4CCO[C@@H](C)C4)nc3)cc2NC(=O)c2cn(C)c(=O)cc2C(F)(F)F)C[C@H](C)N1C (racemic) [Example 451, N-[4-fluoro-5-[2-[(2R)-2-methylmorpholin-4-yl]pyrimidin-5-yl]-2-[(3S,5R)-3,4,5-trimethylpiperazin-1-yl]phenyl]-1-methyl-6-oxo-4-(trifluoromethyl)pyridine-3-carboxamide]	0.092		0.00172	
C[C@@H]1CN(c2cc(F)c(-c3ccc4c(c3)OCO4)cc2NC(=O)c2c[nH]c(=O)cc2C(F)(F)F)C[C@H](C)N1C [Example 63, N-[5-(1,3-benzodioxol-5-yl)-4-fluoro-2-[(3R,5S)-3,4,5-trimethylpiperazin-1-yl]phenyl]-6-oxo-4-(trifluoromethyl)-1H-pyridine-3-carboxamide]	0.206	0.000694		
C[C@@H]1CN(c2cc(F)c(C3=CCN(C(=O)OC4(C)CCC4)CC3)cc2NC(=O)c2c[nH]c(=O)cc2C(F)(F)F)C[C@H](C)N1C [Example 470, (1-methylcyclobutyl) 4-[2-fluoro-5-[[6-oxo-4-(trifluoromethyl)-1H-pyridine-3-carbonyl]amino]-4-[(3R,5S)-3,4,5-trimethylpiperazin-1-yl]phenyl]-3,6-dihydro-2H-pyridine-1-carboxylate]	0.056		0.00427	
COCCOc1ccc(-c2cc(NC(=O)c3c[nH]c(=O)cc3C(F)(F)F)c(N3C[C@@H](C)N(C)[C@@H](C)C3)cc2F)cc1 [Example 90, N-[4-fluoro-5-[4-(2-methoxyethoxy)phenyl]-2-[(3R,5S)-3,4,5-trimethylpiperazin-1-yl]phenyl]-6-oxo-4-(trifluoromethyl)-1H-pyridine-3-carboxamide]	0.12	0.000441		
4-(difluoromethyl)-N-[4-fluoro-5-[2-[(3R)-3-methylmorpholin-4-yl]pyrimidin-5-yl]-2-[(3S,5R)-3,4,5-trimethylpiperazin-1-yl]phenyl]-6-oxo-1H-pyridine-3-carboxamide [Example 521]			0.000579	0.068
C[C@@H]1CN(c2ncc(-c3cc(NC(=O)c4ccc(F)cc4C(F)(F)F)c(N4CCN(C)[C@@H](C)C4)cc3F)cn2)C[C@H](C)O1 (racemic) [Example 430, 4-fluoro-N-[4-fluoro-5-[2-[(2R,6S)-2,6-dimethylmorpholin-4-yl]pyrimidin-5-yl]-2-[(3R)-3,4-dimethylpiperazin-1-yl]phenyl]-2-(trifluoromethyl)benzamide]	0.049		0.000296	
CN1CCN(c2cc(F)c(-c3ccc(OC4CCOCC4)nc3)cc2NC(=O)c2c[nH]c(=O)cc2C(F)(F)F)CC1 [Example 30, N-[4-fluoro-2-(4-methylpiperazin-1-yl)-5-[6-(oxan-4-yloxy)pyridin-3-yl]phenyl]-6-oxo-4-(trifluoromethyl)-1H-pyridine-3-carboxamide]	0.21			
C[C@@H]1CN(c2cc(F)c(-c3cccnc3)cc2NC(=O)c2c[nH]c(=O)cc2C(F)(F)F)C[C@H](C)N1C [Example 35, N-[4-fluoro-5-pyridin-3-yl-2-[(3R,5S)-3,4,5-trimethylpiperazin-1-yl]phenyl]-6-oxo-4-(trifluoromethyl)-1H-pyridine-3-carboxamide]	0.669			

Now from value to compound:

IC50 (MV4-11 cells; Homo sapiens, MV4-11, 120 h) [µM]	Kd (WDR5; [1]) [µM]	Kd (WDR5; [2]) [µM]	IC50 (MV4-11 cells) [µM]	Compound
0.008		0.000658		C[C@@H]1CN(c2cc(F)c(C3=CCCN(c4ncc(CN(C)C)cn4)C3)cc2NC(=O)c2c[nH]c(=O)cc2C(F)(F)F)C[C@H](C)N1C [Example 414, N-[5-[1-[5-[(dimethylamino)methyl]pyrimidin-2-yl]-3,6-dihydro-2H-pyridin-5-yl]-4-fluoro-2-[(3R,5S)-3,4,5-trimethylpiperazin-1-yl]phenyl]-6-oxo-4-(trifluoromethyl)-1H-pyridine-3-carboxamide]
0.049		0.00221		CC1CN(c2cc(F)c(-c3cnc(N4CCNCC4)nc3)cc2NC(=O)c2cn(C)c(=O)cc2C(F)(F)F)CCN1C (stereo in doubt) [Example 464, N-[4-fluoro-5-(2-piperazin-1-ylpyrimidin-5-yl)-2-[(3R)-3,4-dimethylpiperazin-1-yl]phenyl]-1-methyl-6-oxo-4-(trifluoromethyl)pyridine-3-carboxamide]
0.014		0.000737		C[C@@H]1CN(c2nccc(-c3cc(NC(=O)c4c[nH]c(=O)cc4C(F)(F)F)c(N4CCN(C)[C@H](C)C4)cc3F)n2)CCO1 (stereo in doubt) [Example 593, N-[4-fluoro-2-[(3R)-3,4-dimethylpiperazin-1-yl]-5-[2-[(2R)-2-methylmorpholin-4-yl]pyrimidin-4-yl]phenyl]-6-oxo-4-(trifluoromethyl)-1H-pyridine-3-carboxamide]
0.045				C[C@@H]1CN(c2cc(F)c(-c3ccc(N4CCOCC4)cc3)cc2NC(=O)c2c[nH]c(=O)cc2C(F)(F)F)C[C@H](C)N1C [Example 29, N-[4-fluoro-5-(4-morpholin-4-ylphenyl)-2-[(3R,5S)-3,4,5-trimethylpiperazin-1-yl]phenyl]-6-oxo-4-(trifluoromethyl)-1H-pyridine-3-carboxamide]
0.031				C[C@@H]1CN(c2ncc(-c3cc(NC(=O)c4c[nH]c(=O)cc4C(F)F)c(N4CCN(C)[C@@H](C)C4)cc3F)cn2)C[C@H](C)O1 [Example 395, 4-(difluoromethyl)-N-[4-fluoro-5-[2-[(2R,6S)-2,6-dimethylmorpholin-4-yl]pyrimidin-5-yl]-2-[(3S)-3,4-dimethylpiperazin-1-yl]phenyl]-6-oxo-1H-pyridine-3-carboxamide]

Reference: US11319299B2, “Substituted carboxamides as inhibitors of WDR5 protein-protein binding” (PROPELLON THERAPEUTICS INC., priority 2016, dated 2022)
